Laboratory results published in patent US11957783B2, “Topical immunosensitizers to treat viral and fungal infections” (Squarex, LLC, priority 2018, dated 2024).

Columns and labels:
Type in all cases: in vivo, human
Interleukin 2 = experiment: Plasma level of Interleukin 2; details: for Interleukin 2 in plasma, group average / Interleukin 2 in plasma, number of subjects with undetectable levels: n = 12
Procedure: (§1) After a screening visit at which blood was drawn to test for IgG antibody against HSV-1 and subjects were interviewed for inclusion/exclusion criteria, selected subjects returned for blood draws on day 1. After the blood draw on day 1, subjects in group A only were dosed with SADBE. A petrolatum donut was applied with a cotton swab to form about a 1 cm diameter donut on skin on the inner aspect of the upper arm. Then a separate cotton swab was dipped in a 2% SADBE solution (w/v) in DMSO, and the swab was then used to apply about 10-20 mg of solution over about a 1 cm diameter circle within the petrolatum donut. Immediately after application, the application site was covered with TEGADERM. Subjects were advised to remove the TEGADERM and rinse and wipe the spot three hours later. The group A subjects then returned for blood draws on days 15 and 57 and were queried about adverse events on those dates.
At this study visit where blood was drawn it was tested for blood cell counts, various cytokine levels, and anti-HSV-1 IgG quantitative levels.
All subjects had detectable IL-2 and the large majority had detectable IL-2 receptor.

herpes labialis outbreak = experiment: Clinical trial of herpes labialis outbreaks after sensitization dose (Example 2)
Procedure: The median time to the next outbreak for the placebo group was 40 days vs more than 122 days for the 2.0% SADBE group, which difference was highly significant (P=0.009) (Palli 2017). SADBE is a topical immunosensitizer that induces a delayed-type hypersensitivity response and is commonly used in the treatment of verruca vulgaris and alopecia areata (Lee 1999; Silverberg 2000, Rokhshar 1998). […]
(p<0.05). The average days to the first outbreak after the sensitization dose was also measured. […] The A: placebo, 0% SADBE in DMSO.

[1] = Adverse events after single topical SADBE dose, Phase 1 study (Example 1)
Procedure: as §1
Of the 12 subjects treated, two experienced stinging at the application site, and one had nausea that was ruled possibly related to the study drug.

[2] = Rash (erythema) from the sensitization dose (Example 2); details: pooled treatment groups B and C; placebo 2 of 13
From the text: Visit 1: Upon entering the study, patients are sensitized to squaric acid dibutyl ester (SADBE) by dipping a cotton-tipped swab in a 2% solution of SADBE in DMSO and swabbing a 1 cm^2 area on the forearm. Participants are told then to wait at least 2 weeks for their first treatment.

## CCCCOc1c(OCCCC)c(=O)c1=O [SADBE, 3,4-Dibutoxy-3-cyclobutene-1,2-dione]
Interleukin 2; A15 / group A day 1
  Interleukin 2 in plasma, Sample/A1: 0.96
Interleukin 2; A15 minus group A day 1
  Interleukin 2 in plasma, Sample minus A1: -0.54 pg/mL
Interleukin 2; A57 / group A day 1
  Interleukin 2 in plasma, Sample/A1: 0.84
Interleukin 2; A57 minus group A day 1
  Interleukin 2 in plasma, Sample minus A1: -2.13 pg/mL
Interleukin 2; group A day 15 (A15)
  Interleukin 2 in plasma, group average: 12.90 pg/mL
  Interleukin 2 in plasma, number of subjects with undetectable levels: 0
Interleukin 2; group A day 57 (A57)
  Interleukin 2 in plasma, group average: 11.30 pg/mL
  Interleukin 2 in plasma, number of subjects with undetectable levels: 0
Herpes labialis outbreak; pooled groups B and C (2% SADBE in DMSO sensitization), placebo group A 4 of 14
  proportion who had a first outbreak between 30 and 120 days after receiving the sensitization dose: 5 of 26
Herpes labialis outbreak; treatment group, counting from day of sensitization dose, placebo 56 days
  median time to the next outbreak, outbreaks in the 21 days after the sensitization dose excluded: greater than 120 days
Herpes labialis outbreak; treatment group, from sensitization dose (2% SADBE), placebo 42 days, log rank P 0.009
  median time to the next outbreak: greater than 120 days
Herpes labialis outbreak; treatment group, placebo 35 days
  median time to the next outbreak, counting from day 21 after the sensitization dose: greater than 99 days
Herpes labialis outbreak; treatment groups B and C receiving 2% SADBE in DMSO as sensitization dose
  subsequent outbreak during the study time: usually did not have a subsequent outbreak during the study time
Herpes labialis outbreak; versus placebo
  median time to next HSV outbreak in treated patients without visible erythema at application site: longer median time to the next HSV outbreak than patients receiving placebo
[1]; 12 subjects treated
  rashes or delayed-type hypersensitivity reactions: No rashes or delayed-type hypersensitivity reactions were reported
[1]; 12 subjects, single topical 2% SADBE in DMSO on arm
  tolerability of study drug: well tolerated
[1]; of the 12 subjects treated
  subjects who experienced stinging at the application site: two
  subjects with nausea ruled possibly related to the study drug: one
[2]
  subjects with rash (erythema) from the sensitization dose: 17 of 28
